Experimental data taken from ChEMBL document CHEMBL1201862, “PubChem BioAssay data set” (2004).
The source made the active and inactive calls.

Columns and labels:
[1] = C. albicans growth with fluconazole, confirmation, fluorescence, retest (AID 2467); assay type: functional, cell-based
[2] = NIH-3T3 fibroblast cytotoxicity, dose response, cytotoxicity control, cell-based, fluorescence, Alamar Blue, secondary assay (AID 2327); assay type: functional;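 note: NIH-3T3 mouse fibroblasts cultured with fluconazole at 8 µg/mL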
[3] = biological target: Induced myeloid leukemia cell differentiation protein Mcl-1 (Homo sapiens, UniProt Q07820); assay: MCL1-BIM BH3 interaction inhibitors, dose response, biochemical, fluorescence polarization, BIM-BH3 peptide, 1536-well (AID 2217)
Chain of Induced myeloid leukemia cell differentiation protein Mcl-1 (Q07820 whole entry): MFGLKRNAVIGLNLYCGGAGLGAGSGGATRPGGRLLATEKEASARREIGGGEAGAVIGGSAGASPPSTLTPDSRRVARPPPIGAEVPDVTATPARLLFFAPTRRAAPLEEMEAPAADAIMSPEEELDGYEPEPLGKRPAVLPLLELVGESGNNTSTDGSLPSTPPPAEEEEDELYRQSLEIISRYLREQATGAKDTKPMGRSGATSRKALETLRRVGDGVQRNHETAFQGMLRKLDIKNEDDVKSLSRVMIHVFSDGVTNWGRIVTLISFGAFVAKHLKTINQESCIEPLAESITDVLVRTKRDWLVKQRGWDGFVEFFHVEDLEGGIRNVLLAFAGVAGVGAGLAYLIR

Bcl-2-like protein 1 = Bcl-2-like protein 1 (Homo sapiens, UniProt Q07817); assay: BCL-XL inhibitors, dose response, selectivity assay for MCL1 inhibitor project, biochemical, fluorescence polarization, 1536-well (AID 2218)
Chain of Bcl-2-like protein 1 (Q07817 whole entry): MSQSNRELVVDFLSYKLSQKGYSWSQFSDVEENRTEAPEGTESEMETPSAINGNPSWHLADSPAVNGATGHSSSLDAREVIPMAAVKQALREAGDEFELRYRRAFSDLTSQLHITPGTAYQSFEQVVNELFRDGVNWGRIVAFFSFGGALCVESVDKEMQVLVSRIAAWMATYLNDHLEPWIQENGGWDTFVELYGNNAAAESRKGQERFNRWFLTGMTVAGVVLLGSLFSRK

Bcl-2-related protein A1 [4] = biological target: T1, Bcl-2-related protein A1 (Mus musculus, UniProt Q07440); assay: Bfl-1 inhibitors, primary screen, biochemical, fluorescence polarization, FITC-Bid, mouse (AID 432)
T1 sequence (Q07440 whole entry): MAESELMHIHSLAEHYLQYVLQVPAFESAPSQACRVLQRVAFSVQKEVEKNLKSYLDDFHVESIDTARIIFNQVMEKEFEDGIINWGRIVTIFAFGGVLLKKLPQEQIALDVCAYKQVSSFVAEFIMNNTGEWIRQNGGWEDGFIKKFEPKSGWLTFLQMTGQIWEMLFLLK

Bcl-2-related protein A1 [5] = biological target: T1, Bcl-2-related protein A1; assay: Bfl-1 inhibitors blocking BH3 peptide binding, confirmation, biochemical, TR-FRET, mouse Bfl-1 (AID 621);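 note: TR-FRET binding of GST-Bfl-1 to FITC-labelled Bid peptide via terbium antibody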
BJ [6] = assay: cytotoxicity toward BJ-TERT fibroblasts, dose response, cell-based, RAS-independent, luminescence (AID 1933); assay type: functional; details: Homo sapiens
Vero [7] = assay: cells; assay type: functional; details: Chlorocebus sabaeus
BJ [8] = assay: cytotoxicity toward Ras-transformed BJeLR fibroblasts, dose response, cell-based, alamar blue fluorescence, cherrypicked samples (AID 2631); assay type: functional; details: Homo sapiens;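 note: confirmatory dose-response assay in RAS-dependent BJ fibroblasts engineered with TERT, LT and ST, with cytotoxicity read by fluorescence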
Vero [9] = assay: host cell cytotoxicity of antiviral hits, dose response, cytotoxicity control for West Nile virus antiviral project, secondary assay (AID 1650); assay type: functional; details: Chlorocebus sabaeus
BJ [10] = assay: cells; assay type: functional, cell-based; details: Homo sapiens
Vero [11] = assay: cells; assay type: functional, cell-based; details: Chlorocebus sabaeus
Vero [12] = assay: West Nile virus antiviral activity, cell-based, CPE readout (AID 1621); assay type: functional; details: Chlorocebus sabaeus
[13] = cytotoxicity toward DRD oncogenic fibroblasts, dose response, cell-based, non-viral oncogenic, luminescence (AID 1934); assay type: functional; details: Homo sapiens
BJ [14] = assay: cytotoxicity toward BJ-TERT-LT-ST fibroblasts, dose response, cell-based, RAS-independent, luminescence (AID 1935); assay type: functional; details: Homo sapiens;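 note: BJ fibroblasts immortalized with TERT plus LT and ST oncogenes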
cells = assay type: functional, cell-based
[15] = biological target: T2, Nuclear receptor subfamily 0 group B member 1 (Homo sapiens, UniProt P51843); assay type: functional, cell-based;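 note: HEK293T cells transfected with SF-1 and DAX-1 plus StAR promoter luciferase reporter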
T2 sequence (P51843 whole entry): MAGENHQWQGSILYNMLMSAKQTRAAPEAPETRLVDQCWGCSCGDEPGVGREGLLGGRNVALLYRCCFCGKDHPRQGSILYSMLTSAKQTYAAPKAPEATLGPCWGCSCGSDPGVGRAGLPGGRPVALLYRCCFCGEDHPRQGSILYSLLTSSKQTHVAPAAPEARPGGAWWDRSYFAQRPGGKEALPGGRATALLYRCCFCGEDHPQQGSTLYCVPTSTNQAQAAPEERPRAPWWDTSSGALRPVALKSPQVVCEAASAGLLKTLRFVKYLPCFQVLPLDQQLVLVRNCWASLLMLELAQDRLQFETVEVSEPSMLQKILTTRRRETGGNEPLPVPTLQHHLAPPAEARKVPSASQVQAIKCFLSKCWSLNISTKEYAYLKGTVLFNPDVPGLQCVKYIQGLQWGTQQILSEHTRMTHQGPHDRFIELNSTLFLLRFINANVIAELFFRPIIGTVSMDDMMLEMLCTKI

[16] = Luminescence-based dose response cell-based high throughput screening assay for cytotoxic compounds using the IEC-6 intestinal epithelial cell line. [Related pubchem assays: 1858 (Summary AID.), 1825 (Counterscreen.), 1907 (Confirmation screen.)]; assay type: functional
Aspartyl aminopeptidase = Aspartyl aminopeptidase (Plasmodium falciparum 3D7, UniProt Q8I2J3); assay: Counterscreen for inhibitors of M1 and M17 aminopeptidases: QFRET-based biochemical high throughput dose response assay for inhibitors of the Plasmodium falciparum M18 Aspartyl Aminopeptidase (PFM18AAP). [Related PubChem assays: 1619 (Screening assay (M17LAP inhibitors).), 1445 (Screening assay (M1AAP inhibitors).)]
Chain of Aspartyl aminopeptidase (Q8I2J3 whole entry): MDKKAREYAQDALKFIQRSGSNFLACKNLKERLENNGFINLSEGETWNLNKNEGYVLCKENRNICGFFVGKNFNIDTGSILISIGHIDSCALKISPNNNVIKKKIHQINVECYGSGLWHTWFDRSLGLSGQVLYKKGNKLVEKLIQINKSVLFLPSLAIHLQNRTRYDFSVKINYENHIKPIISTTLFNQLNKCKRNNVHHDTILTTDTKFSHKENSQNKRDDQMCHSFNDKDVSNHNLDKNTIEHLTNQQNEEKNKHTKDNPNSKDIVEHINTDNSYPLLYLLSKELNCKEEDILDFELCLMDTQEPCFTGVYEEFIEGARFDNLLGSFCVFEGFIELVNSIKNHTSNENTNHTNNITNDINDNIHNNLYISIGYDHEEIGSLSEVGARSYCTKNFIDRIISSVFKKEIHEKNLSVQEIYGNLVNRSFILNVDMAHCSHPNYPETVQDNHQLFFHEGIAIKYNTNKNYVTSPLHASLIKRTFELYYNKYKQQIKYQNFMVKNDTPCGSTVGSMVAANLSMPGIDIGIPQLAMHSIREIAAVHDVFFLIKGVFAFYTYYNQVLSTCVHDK

Leucine aminopeptidase = biological target: T3, Leucine aminopeptidase (Plasmodium falciparum 3D7, UniProt Q8IL11); assay: P. falciparum M17LAP inhibitors, primary screen, biochemical, fluorogenic H-Leu-NHMec substrate, 1536-well (AID 1619); assay type: functional
T3 sequence (Q8IL11 whole entry): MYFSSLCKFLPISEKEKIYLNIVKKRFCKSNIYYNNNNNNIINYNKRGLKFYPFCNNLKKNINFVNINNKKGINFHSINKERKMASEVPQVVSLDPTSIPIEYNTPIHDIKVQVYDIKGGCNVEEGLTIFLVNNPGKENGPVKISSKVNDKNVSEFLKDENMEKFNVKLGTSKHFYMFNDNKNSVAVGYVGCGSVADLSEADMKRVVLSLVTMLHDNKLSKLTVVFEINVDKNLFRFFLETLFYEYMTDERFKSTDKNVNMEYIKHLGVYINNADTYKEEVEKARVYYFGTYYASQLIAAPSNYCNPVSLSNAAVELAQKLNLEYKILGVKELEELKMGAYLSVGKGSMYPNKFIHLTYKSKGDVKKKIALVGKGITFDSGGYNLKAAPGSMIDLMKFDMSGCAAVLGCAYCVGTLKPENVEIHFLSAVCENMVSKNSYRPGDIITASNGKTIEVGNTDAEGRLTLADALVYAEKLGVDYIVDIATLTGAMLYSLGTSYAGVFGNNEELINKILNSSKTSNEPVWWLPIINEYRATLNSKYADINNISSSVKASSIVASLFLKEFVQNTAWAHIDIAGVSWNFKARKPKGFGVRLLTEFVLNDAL

[17] = biological target: T4, Replicative DNA helicase DnaB (Mycobacterium tuberculosis, UniProt P9WMR3); assay: DnaB intein splicing inhibitors, dose response, biochemical, cell-free fluorescence (AID 449749); assay type: functional
T4 sequence (P9WMR3 whole entry): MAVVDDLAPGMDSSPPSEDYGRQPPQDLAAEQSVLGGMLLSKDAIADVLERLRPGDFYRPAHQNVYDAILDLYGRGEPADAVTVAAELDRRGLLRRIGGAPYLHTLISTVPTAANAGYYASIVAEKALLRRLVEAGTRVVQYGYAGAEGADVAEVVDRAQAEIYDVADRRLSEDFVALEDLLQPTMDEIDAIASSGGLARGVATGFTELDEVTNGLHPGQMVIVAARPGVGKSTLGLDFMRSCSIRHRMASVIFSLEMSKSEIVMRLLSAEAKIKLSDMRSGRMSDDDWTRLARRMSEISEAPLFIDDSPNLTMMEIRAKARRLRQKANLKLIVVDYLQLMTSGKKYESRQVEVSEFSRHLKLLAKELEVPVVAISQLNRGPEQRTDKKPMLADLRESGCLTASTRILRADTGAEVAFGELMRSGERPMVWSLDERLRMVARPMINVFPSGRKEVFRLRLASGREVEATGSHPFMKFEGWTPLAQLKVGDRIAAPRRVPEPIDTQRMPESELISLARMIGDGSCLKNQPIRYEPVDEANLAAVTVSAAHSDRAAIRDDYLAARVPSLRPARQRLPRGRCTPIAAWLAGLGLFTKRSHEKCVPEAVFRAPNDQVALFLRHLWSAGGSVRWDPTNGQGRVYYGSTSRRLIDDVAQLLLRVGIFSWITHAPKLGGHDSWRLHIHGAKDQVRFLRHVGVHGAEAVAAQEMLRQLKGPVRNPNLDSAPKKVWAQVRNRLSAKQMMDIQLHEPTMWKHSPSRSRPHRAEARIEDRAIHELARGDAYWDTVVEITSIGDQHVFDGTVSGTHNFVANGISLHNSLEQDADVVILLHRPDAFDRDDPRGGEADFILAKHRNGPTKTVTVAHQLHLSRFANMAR

Protein RecA = biological target: T5, Protein RecA (Mycobacterium tuberculosis, UniProt P9WHJ3); assay: Fluorescence Cell-Free Homogeneous Dose Retest to Identify Inhibitors of RecA-Intein Splicing Activity. [Related pubchem assays (depositor defined):AID2097, AID2223, AID489010, AID492950]; assay type: functional
T5 sequence (P9WHJ3 whole entry): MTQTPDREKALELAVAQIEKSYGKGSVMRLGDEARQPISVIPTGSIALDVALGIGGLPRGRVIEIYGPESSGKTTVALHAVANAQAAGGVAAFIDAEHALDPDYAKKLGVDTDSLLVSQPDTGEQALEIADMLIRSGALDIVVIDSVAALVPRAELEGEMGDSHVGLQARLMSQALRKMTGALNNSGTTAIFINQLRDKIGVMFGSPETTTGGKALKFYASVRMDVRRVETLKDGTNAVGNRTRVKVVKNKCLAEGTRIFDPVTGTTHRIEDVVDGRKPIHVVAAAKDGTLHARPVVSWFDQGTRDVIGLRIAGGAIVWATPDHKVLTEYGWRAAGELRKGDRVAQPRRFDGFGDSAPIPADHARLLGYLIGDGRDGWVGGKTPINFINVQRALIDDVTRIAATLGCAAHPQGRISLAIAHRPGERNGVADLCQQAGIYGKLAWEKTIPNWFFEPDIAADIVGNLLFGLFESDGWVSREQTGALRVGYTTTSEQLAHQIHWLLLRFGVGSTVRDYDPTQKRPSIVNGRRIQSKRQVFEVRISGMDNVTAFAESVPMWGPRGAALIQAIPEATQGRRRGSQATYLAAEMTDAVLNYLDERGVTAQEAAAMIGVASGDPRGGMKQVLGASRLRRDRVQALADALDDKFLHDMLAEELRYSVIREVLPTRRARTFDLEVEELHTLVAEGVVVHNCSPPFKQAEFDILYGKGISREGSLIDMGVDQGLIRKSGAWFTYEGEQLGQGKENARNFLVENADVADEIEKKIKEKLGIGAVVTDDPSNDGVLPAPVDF

Procathepsin L = Procathepsin L (Homo sapiens, UniProt P07711); assay: cathepsin L inhibitors, dose response, counter-screen for M1/M17 aminopeptidase inhibitor project, biochemical, QFRET, 1536-well (AID 2214)
Chain of Procathepsin L (P07711 whole entry): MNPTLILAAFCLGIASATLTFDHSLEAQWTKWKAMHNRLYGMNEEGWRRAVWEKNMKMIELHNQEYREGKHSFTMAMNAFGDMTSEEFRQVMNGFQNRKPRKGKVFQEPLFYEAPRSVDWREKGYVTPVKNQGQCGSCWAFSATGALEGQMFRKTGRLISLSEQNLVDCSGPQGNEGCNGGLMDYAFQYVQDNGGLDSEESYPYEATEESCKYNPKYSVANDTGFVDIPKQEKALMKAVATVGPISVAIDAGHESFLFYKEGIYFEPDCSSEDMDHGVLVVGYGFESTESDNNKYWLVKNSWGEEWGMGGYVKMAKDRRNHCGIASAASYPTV

[18] = Luminescence Cell-Based Dose Response to Identify Activators of Luciferase Translation or Activity in H4-C Neuroglioblastoma Cells. [Related pubchem assays: 1829 (Project Summary), 1814 (Primary HTS)]; assay type: functional
[19] = Luminescence Cell-Based Dose Confirmation to Identify Activators of 5'UTR Stem-Loop Driven Alpha-Synuclein mRNA Translation in H4 Neuroglioblastoma Cells. [Related pubchem assays: 1829 (Project Summary), 1814 (Primary HTS)]; assay type: functional
H4 = assay: Luminescence Cell-Based Dose Response HTS to Identify Activators of 5'UTR Stem-Loop Driven Prion Protein mRNA Translation in H4 Neuroglioblastoma Cells. [Related pubchem assays: 1829 (Project Summary), 1814 (Primary HTS)]; assay type: functional; details: Homo sapiens
[20] = Luminescence Cell-Based Dose Response to Identify Activators of 5'UTR Stem-Loop Driven Prion Protein mRNA Translation in H4-C Neuroglioblastoma Cells. [Related pubchem assays: 1829 (Project Summary), 1814 (Primary HTS)]; assay type: functional
[21] = Luminescence Cell-Based Dose Response HTS to Identify Activators of Luciferase Translation or Activity in H4 […] Cells. [Related pubchem assays: 1829 (Project Summary), 1814 (Primary HTS)]; assay type: functional

CC12CCC(C(=O)N(NC(=O)c3ccccc3O)C1=O)C2(C)C (configuration not stated)
EC50 [1]: > 38 µM (not active) | EC50 [2]: > 160 µM (inactive) | IC50 [3]: > 109 µM (not active) | IC50 (Bcl-2-like protein 1): > 109 µM (not active)

OCCCc1nc2n(n1)C(c1cccs1)C=C(c1ccccc1)N2 (configuration not stated)
IC50 (Bcl-2-related protein A1 [4]): > 100 µM (not active) | IC50 (Bcl-2-related protein A1 [5]): > 100 µM (not active)

Cc1ccc(NC(=O)[C@H](Cc2c[nH]c3ccccc23)NC(=O)[C@@H]2Cc3ccccc3CN2)c(C)c1
EC50 (BJ [6]): 21.1 µM (active) | CC50 (Vero [7]): 15.9 µM (active) | EC50 (BJ [8]): > 133 µM (inactive) | CC50 (Vero [9]): 12.5 µM (active) | EC50 (BJ [10]): 20.7 µM (active) | IC50 (Vero [11]): 1.91 µM (active) | IC50 (Vero [12]): 43.3 µM (active) | EC50 [13]: 112 µM (inconclusive) | EC50 (BJ [14]): > 150 µM (not active)

N#Cc1c(NC(=O)/C=C/c2ccco2)sc2c1CCCC2
EC50 (BJ [6]): 0.181 µM (active) | IC50 (cells): > 67.6 µM (inactive) | EC50 (BJ [8]): < 0.104 µM (active) | IC50 [15]: 1.43 µM (active) | EC50 (BJ [10]): 1.48 µM (inconclusive) | IC50 [16]: 0.136 µM (active) | EC50 [13]: 0.278 µM (active)

CCOc1cccc(-c2cc(O)[nH]n2)c1
IC50 (Aspartyl aminopeptidase): > 73.5 µM (not active) | IC50 (Leucine aminopeptidase): 1.25 µM (active) | AC50 [17]: 2.18 µM (active) | EC50 (Protein RecA): 0.695 µM (active) | IC50 (Procathepsin L): > 59.6 µM (not active)

Cc1nc2c(-c3ccccc3)cnn2c(N2CCOCC2)c1C
EC50 [18]: 0.246 µM (active) | EC50 [19]: 2.38 µM (active) | EC50 (H4): 0.108 µM (active) | EC50 [20]: 0.246 µM (active) | EC50 [21]: < 0.1 µM (active)
